Reference: US12577238B2, “Compositions and methods for modulating inflammatory and degenerative disorder” (University of Southern California, priority 2018, dated 2026)
Entries after “also recorded” stand apart in the source; their conditions may differ.

Columns and labels:
NF-κB protein = assay: OSM or IL-6 induced NF-κB in human adult articular chondrocytes; assay type: cell-based; conditions: in combination with OSM or IL-6
gp130 = molecular target: T1, gp130 (Rattus norvegicus, UniProt P40190); assay: Injection into rat knees, pSTAT3 and MYC levels; assay type: in vivo; conditions: injection into rat joints
T1 construct: from tissue; host or cells: rat knee joint in vivo (Sprague-Dawley wild-type in the CFA model)
T1 sequence (P40190 23-918): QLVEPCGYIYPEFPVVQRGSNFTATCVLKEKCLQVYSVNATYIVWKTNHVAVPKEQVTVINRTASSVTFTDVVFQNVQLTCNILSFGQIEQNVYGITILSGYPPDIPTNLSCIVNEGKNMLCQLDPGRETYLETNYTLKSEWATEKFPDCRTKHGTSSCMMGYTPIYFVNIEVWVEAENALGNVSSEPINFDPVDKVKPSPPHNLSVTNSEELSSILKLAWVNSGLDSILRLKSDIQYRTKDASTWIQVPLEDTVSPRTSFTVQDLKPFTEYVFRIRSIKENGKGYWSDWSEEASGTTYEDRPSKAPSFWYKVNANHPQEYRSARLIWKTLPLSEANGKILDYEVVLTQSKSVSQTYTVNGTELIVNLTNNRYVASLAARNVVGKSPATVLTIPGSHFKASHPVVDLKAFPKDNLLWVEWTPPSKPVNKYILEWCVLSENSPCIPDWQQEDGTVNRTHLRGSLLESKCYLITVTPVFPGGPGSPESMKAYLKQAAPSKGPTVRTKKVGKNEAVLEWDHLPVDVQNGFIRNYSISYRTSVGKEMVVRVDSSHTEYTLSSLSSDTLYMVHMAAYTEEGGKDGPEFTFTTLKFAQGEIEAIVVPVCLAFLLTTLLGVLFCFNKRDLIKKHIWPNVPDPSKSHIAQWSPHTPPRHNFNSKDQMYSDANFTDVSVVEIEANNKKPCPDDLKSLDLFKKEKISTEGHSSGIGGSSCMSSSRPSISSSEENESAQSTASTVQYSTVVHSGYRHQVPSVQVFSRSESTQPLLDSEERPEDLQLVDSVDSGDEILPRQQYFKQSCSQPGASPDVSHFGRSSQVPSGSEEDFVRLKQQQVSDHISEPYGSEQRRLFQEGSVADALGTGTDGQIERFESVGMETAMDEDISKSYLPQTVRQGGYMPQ
Method: Based on this, it was hypothesized that RCGD 423 acts through gp130 by promoting stable homodimers in the absence of ligand. To confirm that RCGD 423 acts through gp130, the gp130 null cell line Ba/F3 cells was used. Ba/F3 cells were transfected with either full-length gp130 or a mutant gp130 lacking domain 2 (ΔD2), which contains the predicted binding site for RCGD 423 (FIG. 7). […] To verify the specificity of RCGD 423 in vivo, the compound was injected into rat knees in the presence of the small molecule gp130 inhibitor SC144 or a blocking antibody specific for domain 2 of gp130. […] The ability of RCGD 423 to act via inducing formation of gp130 homodimers was then examined by expressing tagged versions of gp130 in 293T cells. In this system, only homodimeric complexes can contain both tagged versions of gp130 (FIG. 9).

[1] = system: Col10a1-RFP reporter in limb bud mesenchymal cells; assay: High throughput screen, Col10a1 reporter in BMP-4 stimulated limb mesenchymal cells; assay type: cell-based, mouse; conditions: ~170,000 compounds screened
Method: The gp130 co-receptor LIFR is expressed on a subset of superficial chondrocytes throughout human ontogeny. […] Given the known (and mostly detrimental roles) of IL-6 family cytokines on articular chondrocytes, a high throughput screen was performed to identify small molecules that could potentially modulate gp130 signaling. In adult mice, IL-6/gp130 signaling drives Col10a1 expression and hypertrophy, which has been strongly associated with OA progression; ˜170,000 compounds were thus screened for their ability to prevent increases in Col10-mCherry fluorescence in mouse limb mesenchymal cells stimulated with BMP-4, a strong driver of hypertrophy (FIG. 2).

adult human PBMCs = assay: ERK and NF-κB downstream of OSM and IL-6 in PBMCs; assay type: cell-based
Method: Accordingly, the ability of RCGD 423 to suppress signaling downstream of IL-6 and OSM in synoviocytes and peripheral blood mononuclear cells was assessed (FIG. 14).

pSTAT3 and MYC levels in rat joints (gp130): increased pSTAT3 and MYC levels
Structure (SMILES): Brc1ccc(Nc2nc(-c3ccccc3)cs2)cc1 [RCGD 423]
increases in NF-κB protein / signaling downstream of OSM and IL-6 (NF-κB protein): significantly reduced increases in NF-κB protein; also recorded: reduces signaling downstream of OSM and IL-6
ability to prevent increases in Col10-mCherry fluorescence (Col10a1 reporter) [1]: primary hit
increases in ERK and NF-κB levels downstream of OSM and IL-6 (adult human PBMCs): inhibits increases in ERK and NF-κB levels
